Experimental data taken from patent US20220235034A1, “SELECTIVE HISTAMINE H3 RECEPTOR ANTAGONISTS FOR TREATING AUTISM SPECTRUM DISORDER” (RICHTER GEDEON NYRT., priority 2019, published 2022).
“Also recorded” adds a separate entry of the source.

What was measured:
[1] = system: prenatally valproate-treated rats; experiment: social recognition memory in the 3-chamber apparatus in prenatally valproate-treated rats; format: in vivo, rat; conditions: postnatal day 60
Experimental: In this method, time-mated female Wistar rats are administered a single dose of VPA (600 mg/kg, i.p.) on gestational day 12.5. Offspring are housed according to standard laboratory conditions until time of behavioral testing. Animals are housed in groups of 4 in conventional cages and maintained at 22-24° C. on a standard 12 hours light/dark cycle, with food and water available ad libitum. After investigational drug treatment, offspring are examined behaviorally in tests relevant for the assessment of autistic behavior. These tests include social play, social preference and social recognition memory. These tests are suitable to assess behavioral elements that represent core ASD symptoms in experimental animals. […] Doses of the investigational drug were corrected for the dicitrate salt with a correction factor of 2.07 and are expressed as free base. […]
(§1) The social preference and recognition memory assays in a 3-chamber apparatus are further indicators of intact social behavior in rats. […] On postnatal day 59, prenatally VPA-treated rats are assessed for their social preference following 8 days of per os treatment with the test compound. On postnatal day 60, the same rats are assessed for their social recognition memory after 9 days of per os treatment with the test compound. […]

[2] = system: prenatally valproate-treated rats; experiment: social play assay in prenatally valproate-treated rats; format: in vivo, rat; conditions: postnatal day 30
Experimental: (§2) In this method, time-mated female Wistar rats are administered a single dose of VPA (600 mg/kg, i.p.) on gestational day 12.5. Offspring are housed according to standard laboratory conditions until time of behavioral testing. Animals are housed in groups of 4 in conventional cages and maintained at 22-24° C. on a standard 12 hours light/dark cycle, with food and water available ad libitum. After investigational drug treatment, offspring are examined behaviorally in tests relevant for the assessment of autistic behavior. These tests include social play, social preference and social recognition memory. These tests are suitable to assess behavioral elements that represent core ASD symptoms in experimental animals. Efficaciousness of an investigational compound (ie. improvement of behavioral deficits induced by prenatal VPA exposure) may indicate usefulness in the pharmacotherapy of core symptoms of ASD. Doses of the investigational drug were corrected for the dicitrate salt with a correction factor of 2.07 and are expressed as free base. Reference is herein made to a parallel patent application filed by the applicant with the title of “Selective histamine H3 receptor antagonist acid addition salts and process for the preparation thereof” wherein the salts, including dicitrate salt is disclosed in detail.
Social play is a type of social interaction that is highly typical of adolescent mammals including rodents as well as humans (Vanderschuren and Trezza, Curr. Topics Behav. Neurosci. 2014, 16:189-212). Social play behavior is indicative of healthy social functioning in adult life and is defective after prenatal VPA treatment in the offspring (Schneider and Przewlocki Neuropsychopharmacology 2005, 30:80-89). At postnatal day 30, following 8 days treatment with the test compound, prenatally VPA-treated rats are evaluated for juvenile play behavior. The test is carried out in a test arena unknown to the rats with pairs of animals from the same treatment group over a 15 min trial. Animals are scored for duration of social play behavior. […]

[3] = system: prenatally valproate-treated rats; experiment: social preference in the 3-chamber apparatus in prenatally valproate-treated rats; format: in vivo, rat; conditions: postnatal day 59
Experimental: as §2
as §1, with “rats. The preference of a conspecific over an inanimate object as well as the ability to distinguish between familiar and novel conspecifics are necessary for normal social functioning and are defective in the prenatal VPA model in rats (Bambini-Junior et al., Brain Res. 2011, 1408:8-16).” for “rats.”

[4] = system: prenatally valproate-exposed rat pups; experiment: maternal deprivation-induced ultrasonic vocalization in prenatally valproate-exposed rat pups; format: in vivo; conditions: 0.01-1 mg/kg oral, co-administered with oral risperidone 0.003 mg/kg; prenatal valproate 300 mg/kg
Experimental: Maternal deprivation-induced ultrasonic vocalization in rat pups is a readout of socio-communicational function that is impaired in offspring after prenatal exposure to VPA (Gandal et al., Biol. Psychiatry 2010, 68, 1100-1106). To induce ultrasonic calls, prenatally VPA treated rat pups are placed individually into a cage where calls are being recorded with bat microphones. Calls are digitized with an audio filter and ultrasonic vocalization is recorded and quantified with SonoTrack software (Metris bv. The Netherlands). Baseline vocalization is measured on postnatal days 11-12 days for 10 min. Animals are divided into homogenous groups based on baseline vocalizations. On postnatal day 13, animals are treated p.o. with the appropriate doses of drug or vehicle 60 min before measurement and then returned to their nests until recording. Ultrasonic call counts are recorded for 10 min. Statistical analysis is performed on ultrasonic call counts with the non-parametric Kruskal-Wallis test and the post hoc Dunnett test.
The behavioral effect of the co-administration of 1-[4-(4-{3-[(2R)-2-methyl-pyrrolidin-1-yl]-propoxy)-phenoxy)-piperidin-1-yl]-ethan-1-one dicitrate and risperidone was studied in prenatally valproate-exposed (300 mg/kg) rat pups on ultrasound emissions induced by separation from their mothers. […]

[5] = system: prenatal valproate exposure model; conditions: dose of risperidone applied in the present study (0.003 mg/kg); cited from earlier work

Row | Structure (SMILES) | effect on social recognition memory versus VPA+VEH familiar ([1]; 1 mg/kg per os once daily for 9 days, dicitrate) | reversal of the social recognition deficit induced by prenatal valproate treatment ([1]; per os once daily for 9 days, doses 0.01, 0.1 and 1 mg/kg) | significance of effect on social play versus VPA+VEH ([2]; 0.1 mg/kg per os once daily for 8 days, dicitrate) | significance of effect on social play versus VPA+VEH ([2]; 1 mg/kg per os once daily for 8 days) | reversal of the social play deficit induced by prenatal valproate treatment (duration of social play behavior) ([2]; per os once daily for 8 days, doses 0.01, 0.1 and 1 mg/kg (as free base), dicitrate) | effect on social preference versus VPA+VEH ([3]; 0.1 mg/kg per os once daily for 8 days) | effect on social preference versus VPA+VEH ([3]; 1 mg/kg per os once daily for 8 days, dicitrate) | reversal of the social preference deficit induced by prenatal valproate treatment ([3]; per os once daily for 8 days, doses 0.01, 0.1 and 1 mg/kg) | reversal of the socio-communicational defect (ultrasound emissions induced by separation from mothers) [4] | efficacy signal in the prenatal valproate exposure model [5]
1 | CC(=O)N1CCC(Oc2ccc(OCCCN3CCC[C@H]3C)cc2)CC1 [1-[4-(4-{3-[(2R)-2-methylpyrrolidin-1-yl]-propoxy}-phenoxy)-piperidin-1-yl]-ethan-1-on dicitrate] | statistically significant; also recorded: fully reversed social recognition memory deficits | reversed the social recognition deficit | statistically significant; also recorded: reaching significance | statistically significant | reversed the social play deficit; also recorded: partially reversed social play deficits | statistically significant | statistically significant; also recorded: fully reversed social preference deficits | reversed the social preference deficit | dose-proportionally reversed the socio-communicational defect | 
2 | Cc1nc2n(c(=O)c1CCN1CCC(c3noc4cc(F)ccc34)CC1)CCCC2 [risperidone] |  |  |  |  |  |  |  |  |  | produce an efficacy signal
